Entries after “also recorded” stand apart in the source; their conditions may differ.
Assays:
anesthetized rats [1] = assay: Renal sodium excretion during and after iv peptide infusion in anesthetized rats; assay type: in vivo, rat
Method: (§1) Rats were not fasted prior to clearance experiments and ranged in weight from 250-340 g at the time of study. Anesthesia was induced with an intraperitoneal injection of pentobarbital sodium (55 mg/kg BW) and maintained at a surgical plane by intermittent intravenous supplementation. Core temperature was maintained at 37° C. by a servo-controlled, heated operating table. Animals breathed spontaneously through a PE240 cannula inserted into the trachea. A jugular vein was catheterized with PE50 cannula tubing for intravenous infusion of isotonic saline containing FITC-labeled inulin (0.4% W/V, Sigma, St Louis Mo.) and two PE10 cannulae, one for supplemental anesthetic and the other for peptide infusions (described below in the experimental protocol section). The ureters were exposed through a midline ventral incision and cannulated with PE10 tubing about one cm from each kidney. Urine was collected over 20 min periods and the volume estimated by weight. A femoral artery was cannulated with PE50 tubing for continuous measurement of arterial blood pressure and intermittent blood samples (50 μl), taken at the mid point of each urine collection.
All rats received a continuous intravenous infusion (10 μl/min/100 g BW) of isotonic saline containing FITC-labeled inulin for measurement of inulin clearance. Uncongugated FITC label and small inulin polymers were removed from the inulin solution by overnight dialysis against isotonic saline (SpectraPor 6 dialysis membrane, 1 kDa cutoff-limit, Spectrum Laboratories, Rancho Domingo, Calif.). Undissolved particulates were removed from the solution by filtration through a […] filter before each experiment (Steriflip, Millipore Inc. Billerica, Mass.). At least one hr was allowed for equilibration before the start of urine collections, at which point plasma inulin concentration had stabilized at an average value of 30±3 μg/ml.
(§2) Arterial blood pressure was measured with a pressure transducer connected to a cardiovascular analyzer (Model 50110, Stoelting Instruments Wood Dale, Ill.). Left renal blood flow was measured in some rats with a flow probe positioned on the left renal artery and connected to a blood flow monitor (model 1 PRB probe and model T420 monitor, Transonic Systems Inc. Ithaca N.Y.). Arterial pressure, heart rate, and renal blood flow were digitized with an A/D converter (Keithley instruments, Cleveland, Ohio Model KUSB 3100) for display and storage on a Windows-based personal computer using open layers data acquisition software (Dtx_Ez, Data Translation Inc, Marlboro, Mass.). Sodium and potassium concentrations in plasma and urine were measured by flame photometry (Model 943, Instrumentation Laboratory Co., Lexington Mass.). Glomerular filtration rate (GFR) was measured as the renal clearance rate of FITC-labeled inulin
(§3) After post-surgical equilibration (−60 min) and three 20 min control clearance periods, huUgnA or B was infused into the jugular vein at 10 μl/min over a 60 min period, followed by a return to isotonic saline for the remainder of the experiment. The infused doses of huUgnA were 12, 25, 50, 100, or 200 nmol/kg BW in a total of 38 rats; huUgnB doses were 9, 18, 35, 70, and 140 nmol/kg BW in 35 rats. A UgnA mimetic, E. coli STh (ST-core), was infused into a third group of 32 rats at doses of 17, 32, 66, 133, and 266 nmol/kg. Renal excretory responses to these infusions were slow to develop and long lasting, so clearance periods were continued for 2-3 hr after the termination of the peptide infusion. This protracted time course limited protocols to one dose of one peptide in each rat. A control group of 10 rats received isotonic saline at 10 μl/min in place of the peptide infusion, but was otherwise treated in the same way as the experimental groups.
The effects of combined infusions of huUgnA and B were investigated in two groups of rats that received 35 nmol/kg of huUgnB together with either 25 nmol/kg (n=5) or 100 nmol/kg of huUgnA (n=5). […]

anesthetized rats [2] = assay: Renal potassium excretion during and after iv peptide infusion in anesthetized rats; assay type: in vivo, rat
Method: as §1, §2, §3
Sodium and potassium excretion rates are expressed as absolute values (UNaV and UKV) or factored by filtered load to provide fractional excretion (FENa and FEK). Glomerular filtration rate (GFR) was equated with inulin clearance. The net natriuretic response to peptide infusions was assessed by summing total Na excretion during infusion and post-infusion collection periods in each rat after subtraction of corresponding mean values obtained from the control group. The cumulative net excretion obtained in this way provides a measure of the natriuretic response to each dose of peptide infused. Results from both kidneys were averaged for each rat before calculating group means±sem.
Group comparisons were made with one way analysis of variance (ANOVA) using peptide doses as column variables. […]

[3] = huUgnB 35 nmol, Post-infuse, *** p<0.005 vs time control
[4] = huUgnB 70 nmol, Post-infuse, * p<0.05 vs time control
[5] = huUgnB 140 nmol, Post-infuse, ** p<0.01 vs time control

CC(C)C[C@H](NC(=O)[C@@H]1CSSC[C@@H]2NC(=O)[C@H](CC(C)C)NC(=O)[C@H](CCC(=O)O)NC(=O)[C@@H](NC(=O)[C@H](CC(=O)O)NC(=O)[C@H](CC(=O)O)NC(=O)[C@@H](N)CC(N)=O)CSSC[C@H](NC(=O)[C@H](C)NC(=O)[C@H](C(C)C)NC(=O)[C@H](CC(N)=O)NC(=O)[C@H](C(C)C)NC2=O)C(=O)N[C@@H]([C@@H](C)O)C(=O)NCC(=O)N1)C(=O)O (single isomer, unassigned) [huUgnB, Asn Asp Asp Cys Glu Leu Cys Val Asn Val Ala Cys Thr Gly Cys Leu]
net cumulative sodium excretion, co-infusion (anesthetized rats [1]; huUgnA 25 nmol/kg combined with huUgnB 35 nmol/kg): did not produce an additive response; also recorded: not different from the natriuresis evoked by A25 or B35 alone
net cumulative sodium excretion, co-infusion (anesthetized rats [1]; huUgnA 100 nmol/kg combined with huUgnB 35 nmol/kg): almost completely suppressed; also recorded: significantly less than the response to B35 alone
FENa (fractional sodium excretion) (anesthetized rats [1]; huUgnB 9 nmol, Infuse): 0.09 ± 0.02 % of filtered
UNaV (sodium excretion) (anesthetized rats [1]; huUgnB 9 nmol, Infusion): 134.6 ± 53 nEq/min/g KW
FENa (fractional sodium excretion) (anesthetized rats [1]; huUgnB 9 nmol, Post-infuse): 0.21 ± 0.04 % of filtered
UNaV (sodium excretion) (anesthetized rats [1]; huUgnB 9 nmol, Post-infuse): 195 ± 37 nEq/min/g KW
FENa (fractional sodium excretion) (anesthetized rats [1]; huUgnB 9 nmol, Pre-infuse): 0.05 ± 0.01 % of filtered
UNaV (sodium excretion) (anesthetized rats [1]; huUgnB 9 nmol, Pre-infuse): 67 ± 17 nEq/min/g KW
FENa (fractional sodium excretion) (anesthetized rats [1]; huUgnB 18 nmol, Infuse): 0.12 ± 0.03 % of filtered
UNaV (sodium excretion) (anesthetized rats [1]; huUgnB 18 nmol, Infusion): 155.2 ± 34 nEq/min/g KW
FENa (fractional sodium excretion) (anesthetized rats [1]; huUgnB 18 nmol, Post-infuse): 0.42 ± 0.08 % of filtered
UNaV (sodium excretion) (anesthetized rats [1]; huUgnB 18 nmol, Post-infuse, *** p<0.005 vs time control): 538 ± 81*** nEq/min/g KW
FENa (fractional sodium excretion) (anesthetized rats [1]; huUgnB 18 nmol, Pre-infuse): 0.07 ± 0.01 % of filtered
UNaV (sodium excretion) (anesthetized rats [1]; huUgnB 18 nmol, Pre-infuse): 83 ± 19 nEq/min/g KW
FENa (fractional sodium excretion) (anesthetized rats [1]; huUgnB 35 nmol, Infuse): 0.27 ± 0.07 % of filtered
UNaV (sodium excretion) (anesthetized rats [1]; huUgnB 35 nmol, Infusion): 229.4 ± 47 nEq/min/g KW
FENa (fractional sodium excretion) (anesthetized rats [1]; [3]): 0.62 ± 0.10*** % of filtered
UNaV (sodium excretion) (anesthetized rats [1]; [3]): 729 ± 73*** nEq/min/g KW
FENa (fractional sodium excretion) (anesthetized rats [1]; huUgnB 35 nmol, Pre-infuse): 0.12 ± 0.02 % of filtered
UNaV (sodium excretion) (anesthetized rats [1]; huUgnB 35 nmol, Pre-infuse): 132 ± 40 nEq/min/g KW
FENa (fractional sodium excretion) (anesthetized rats [1]; huUgnB 70 nmol, Infuse): 0.24 ± 0.14 % of filtered
UNaV (sodium excretion) (anesthetized rats [1]; huUgnB 70 nmol, Infusion): 285.7 ± 165 nEq/min/g KW
FENa (fractional sodium excretion) (anesthetized rats [1]; [4]): 0.52 ± 0.10* % of filtered
UNaV (sodium excretion) (anesthetized rats [1]; huUgnB 70 nmol, Post-infuse, *** p<0.005 vs time control): 696 ± 151*** nEq/min/g KW
FENa (fractional sodium excretion) (anesthetized rats [1]; huUgnB 70 nmol, Pre-infuse): 0.08 ± 0.03 % of filtered
UNaV (sodium excretion) (anesthetized rats [1]; huUgnB 70 nmol, Pre-infuse): 87 ± 31 nEq/min/g KW
FENa (fractional sodium excretion) (anesthetized rats [1]; huUgnB 140 nmol, Infuse): 0.18 ± 0.05 % of filtered
UNaV (sodium excretion) (anesthetized rats [1]; huUgnB 140 nmol, Infusion): 212.1 ± 67 nEq/min/g KW
FENa (fractional sodium excretion) (anesthetized rats [1]; [5]): 0.65 ± 0.11** % of filtered
UNaV (sodium excretion) (anesthetized rats [1]; huUgnB 140 nmol, Post-infuse, *** p<0.005 vs time control): 906 ± 170*** nEq/min/g KW
FENa (fractional sodium excretion) (anesthetized rats [1]; huUgnB 140 nmol, Pre-infuse): 0.08 ± 0.01 % of filtered
UNaV (sodium excretion) (anesthetized rats [1]; huUgnB 140 nmol, Pre-infuse): 103 ± 8 nEq/min/g KW
ED50, net cumulative sodium excretion over three hours (anesthetized rats [1]; infused over first hour, log agonist response curve, FIG. 6A): 19 nmol/kg
ED50, net cumulative sodium excretion (anesthetized rats [1]; log(agonist) vs response fit, p<0.02): about 20 nmol UgnB/kg BW
UNaV time course, ANOVA vs control (anesthetized rats [1]; post infusion periods after 18, 35, 70, and 140 nmol/kg (p<0.001 for all)): significant natriuretic response
doses producing significant natriuresis (net excretory values) (anesthetized rats [1]; rat, in vivo): above 9 nmol
shape of natriuretic dose-response relationship (anesthetized rats [1]; rat, in vivo): conventional
FEK (fractional potassium excretion) (anesthetized rats [2]; huUgnB 9 nmol, Infuse): 30.6 ± 6.1 % of filtered
UKV (potassium excretion) (anesthetized rats [2]; huUgnB 9 nmol, Infusion): 840 ± 83 nEq/min/g KW
FEK (fractional potassium excretion) (anesthetized rats [2]; huUgnB 9 nmol, Post-infuse): 34.8 ± 3.1 % of filtered
UKV (potassium excretion) (anesthetized rats [2]; huUgnB 9 nmol, Post-infuse): 943 ± 82 nEq/min/g KW
FEK (fractional potassium excretion) (anesthetized rats [2]; huUgnB 9 nmol, Pre-infuse): 23.4 ± 6.0 % of filtered
UKV (potassium excretion) (anesthetized rats [2]; huUgnB 9 nmol, Pre-infuse): 655 ± 79 nEq/min/g KW
FEK (fractional potassium excretion) (anesthetized rats [2]; huUgnB 18 nmol, Infuse): 29.6 ± 3.2 % of filtered
UKV (potassium excretion) (anesthetized rats [2]; huUgnB 18 nmol, Infusion): 860 ± 72 nEq/min/g KW
FEK (fractional potassium excretion) (anesthetized rats [2]; huUgnB 18 nmol, Post-infuse): 39.2 ± 2.6 % of filtered
UKV (potassium excretion) (anesthetized rats [2]; huUgnB 18 nmol, Post-infuse): 1014 ± 79 nEq/min/g KW
FEK (fractional potassium excretion) (anesthetized rats [2]; huUgnB 18 nmol, Pre-infuse): 20.0 ± 2.3 % of filtered
UKV (potassium excretion) (anesthetized rats [2]; huUgnB 18 nmol, Pre-infuse): 592 ± 71 nEq/min/g KW
FEK (fractional potassium excretion) (anesthetized rats [2]; huUgnB 35 nmol, Infuse): 32.6 ± 3.7 % of filtered
UKV (potassium excretion) (anesthetized rats [2]; huUgnB 35 nmol, Infusion): 837 ± 84 nEq/min/g KW
FEK (fractional potassium excretion) (anesthetized rats [2]; huUgnB 35 nmol, Post-infuse): 38.9 ± 3.0 % of filtered
UKV (potassium excretion) (anesthetized rats [2]; huUgnB 35 nmol, Post-infuse): 998 ± 85 nEq/min/g KW
FEK (fractional potassium excretion) (anesthetized rats [2]; huUgnB 35 nmol, Pre-infuse): 25.7 ± 2.4 % of filtered
UKV (potassium excretion) (anesthetized rats [2]; huUgnB 35 nmol, Pre-infuse): 729 ± 79 nEq/min/g KW
FEK (fractional potassium excretion) (anesthetized rats [2]; huUgnB 70 nmol, Infuse): 37.7 ± 9.8 % of filtered
UKV (potassium excretion) (anesthetized rats [2]; huUgnB 70 nmol, Infusion): 1297 ± 209 nEq/min/g KW
FEK (fractional potassium excretion) (anesthetized rats [2]; huUgnB 70 nmol, Post-infuse): 47.1 ± 5.6 % of filtered
UKV (potassium excretion) (anesthetized rats [2]; [4]): 1491 ± 183* nEq/min/g KW
FEK (fractional potassium excretion) (anesthetized rats [2]; huUgnB 70 nmol, Pre-infuse): 20.4 ± 5.5 % of filtered
UKV (potassium excretion) (anesthetized rats [2]; huUgnB 70 nmol, Pre-infuse): 791 ± 265 nEq/min/g KW
FEK (fractional potassium excretion) (anesthetized rats [2]; huUgnB 140 nmol, Infuse): 49.2 ± 3.6 % of filtered
UKV (potassium excretion) (anesthetized rats [2]; huUgnB 140 nmol, Infusion): 1086 ± 124 nEq/min/g KW
UKV (potassium excretion) (anesthetized rats [2]; huUgnB 140 nmol, Post-infuse): 1396 ± 89 nEq/min/g KW
FEK (fractional potassium excretion) (anesthetized rats [2]; [5]): 58.4 ± 3.5** % of filtered
FEK (fractional potassium excretion) (anesthetized rats [2]; huUgnB 140 nmol, Pre-infuse): 28.3 ± 0.9 % of filtered
UKV (potassium excretion) (anesthetized rats [2]; huUgnB 140 nmol, Pre-infuse): 770 ± 78 nEq/min/g KW
FEK vs control (anesthetized rats [2]; post infusion period, only after the highest doses): increased over control levels

From US20120028897A1, “METHODS AND COMPOSITIONS FOR THE TREATMENT OF FLUID RETENTION DISORDERS” (priority 2008, published 2012)
